# Data as given in patent US6417384B1, “Radioiodinated phospholipid ether analogs and methods of using the same” (The Regents of the University of Michigan, priority 1999, dated 2002).
# Columns and labels:
# Type in all cases: in vivo, rat
# [1] = tested on: rats bearing Walker-256 tumor; experiment: Biodistribution studies with Walker-256 carcinosarcoma; details: i.v., Walker-256 tumor-bearing rats, mean ± SEM
# Experimental: The three radiolabelled compounds illustrated in FIG. 5, including the improved C-18 analog 18-(p-iodophenyl)octadecyl phosphocholine (Compound XVI) described in Example 2, were prepared and administered to two sets of female Sprague Dawley rats (Charles River, Portage, Mich.). One normal set was used as a control, and one set was inoculated with Walker-256 carcinosarcoma cells (5×10^6 cells) in 0.2 ml saline in the right hindlimb. The Walker carcinoma cell line was provided by Dr. James Varani of the Department of Pathology at the University of Michigan, and is an accepted cell line representative of effect in humans. See, e.g. Tayck et al., “Influence of the Walker 256 Carcinosarcoma on Muscle, Tumor, and Whole-Body Protein Synthesis and Growth Rate in the Cancer-Bearing Rat, Cancer Res. 46:5649-54 (1986).
# The animals were used 6-8 days later when the tumor weight averaged 10 g. The radiolabelled compounds were dissolved in absolute ethanol (50-500 μl) and Tween-20 (0.1 ml/mg of compound) was added to the solution. Ethanol was removed by evaporation under a stream of nitrogen. Physiological saline or sterile water was added, to give a 2-3% Tween-20 solution which was subsequently mixed by vortex. The solubilized radiolabelled compounds (5-10 μCi, 0.3 ml) were administered intravenously via the tail vein to tumor bearing rats, and the animals were sacrificed by exsanguination while under ether anesthesia at the various time points. Blood samples were collected through cardiac puncture and selected tissues (liver, kidney, etc.) were removed, trimmed, blotted to remove excess blood and weighed. Large organs were thoroughly minced with scissors to obtain random representative tissue samples.
# For the biodistribution experiments with 12-(p-iodophenyl)dodecyl phosphocholine, weighed tissue samples were counted with a well scintillation counter (85% counting efficiency). The concentration of radioactivity in each tissue was expressed as a percentage of administered dose per gram of tissue.
# Tissue distribution was assessed at various times following administration of the radioiodinated chain length isomers. The results are expressed as the mean % administered dose per gram±SEM (% Dose/g±SEM).
# [2] = tested on: rats bearing Dunning (MATLyLu) prostate tumors; experiment: Biodistribution studies with Dunning prostate tumor; details: i.v., Dunning MAT-LyLu prostate tumor-bearing rats, mean ± SEM
# Experimental: The three radiolabelled compounds illustrated in FIGS. 7A-7C, including the improved C-18 analogs 18-(p-iodophenyl)octadecyl phosphocholine (Compound XVI—FIG. 7B) and 1-O-[18-(p-iodophenyl)octadecyl]-1,3-propanediol-3-phosphocholine (Compound XIV—FIG. 7C) described in Examples 2 and 3, respectively, were prepared and administered to two sets of male Copenhagen rats (Harlan Sprague-Dawley, Indianapolis, Ind.). One group of normal animals was used as a control, and another group was inoculated with Dunning prostate tumor cells (1×10^6 MAT-LyLu cells) in 0.2 ml saline in the right hindlimb. The MAT-LyLu subline of the Dunning (R-3327) adenocarcinoma prostate tumor was provided by Dr. Ken Pienta of the Department of Urology at the University of Michigan, and is an accepted cell line representative of effect in humans. See, e.g., Pienta et al., “Inhibition of Spontaneous Metastasis in a Rat Prostrate Cancer Model by Oral Administration of Modified Citrus Pectin, J. Natl. Cancer Inst. 87:348-53 (1995).
# The animals were maintained with free access to food and water until day 8-10. The radioiodinated phospholipid ether analog formulated in 2% Tween 20—sterile water (5-10 μCi, 0.3-0.4 ml, described above in Example 6) was administered intravenously into the tail vein of the tumor-bearing animals under metofane anesthesia. The animals were euthanized at selected time points after injection (n=3 per time point) and samples of blood, plasma and a variety of tissues including tumor and prostate are collected and analyzed for radioiodine content. Biodistribution values are calculated as the mean of the individual % administered dose per gram of tissue and % dose per organ values.
# [3] = tested on: Dunning R3327 prostate tumor-bearing animals; experiment: Gamma camera scintigraphy studies with Dunning R3327 prostate tumor; details: >40 μCi injected, 125I window, static fifteen-minute images
# Experimental: Comparative in vivo scintigaphic studies were also conducted using the C-12 analog 12-(p-iodophenyl)dodecyl phosphocholine and the C-18 analogs 18-(p-iodophenyl)octadecyl phosphocholine (Compound XVI) and 1-O-[18-(p-iodophenyl)octadecyl]-1,3-propanediol-3-phosphocholine (Compound XIV) utilized in Example 7. The imaging studies were performed on Dunning R3327 prostate tumor-bearing animals injected with >40 μCi of the radioiodinated phospholipid ether formulations described above. The anesthetized animals were imaged at selected times after injection on a gamma camera set to the ^125I window and outfitted with a low energy collimator. Static fifteen-minute images were obtained for each animal at the specified time. The results are illustrated in FIGS. 8A-8C.
substance,measurement,setting,value
12-(p-iodophenyl)dodecyl phosphocholine [C-12 Analog],"mean % administered dose per gram, Adrenal",[1]; 24 hr,0.33 ± 0.01 % Dose/g
same,"mean % administered dose per gram, Adrenal",[1]; 48 hr,0.29 ± 0.01 % Dose/g
same,"mean % administered dose per gram, Blood","[1]; Blood, 24 hr",0.27 ± 0.04 % Dose/g
same,"mean % administered dose per gram, Blood","[1]; Blood, 48 hr",0.27 ± 0.03 % Dose/g
same,blood levels,"[1]; Blood, 120 hours",0.22±0.03 % Dose/g
same,"mean % administered dose per gram, Duodenum",[1]; 24 hr,1.35 ± 0.13 % Dose/g
same,"mean % administered dose per gram, Duodenum",[1]; 48 hr,0.77 ± 0.06 % Dose/g
same,"mean % administered dose per gram, Kidney",[1]; 24 hr,4.10 ± 0.44 % Dose/g
same,"mean % administered dose per gram, Kidney",[1]; 48 hr,3.44 ± 0.08 % Dose/g
same,"mean % administered dose per gram, Liver",[1]; 24 hr,1.62 ± 0.17 % Dose/g
same,"mean % administered dose per gram, Liver",[1]; 48 hr,1.37 ± 0.01 % Dose/g
same,"mean % administered dose per gram, Lung",[1]; 24 hr,1.06 ± 0.04 % Dose/g
same,"mean % administered dose per gram, Lung",[1]; 48 hr,0.53 ± 0.01 % Dose/g
same,"mean % administered dose per gram, Plasma",[1]; 24 hr,0.39 ± 0.05 % Dose/g
same,"mean % administered dose per gram, Plasma",[1]; 48 hr,0.39 ± 0.05 % Dose/g
same,"mean % administered dose per gram, Tumor",[1]; 24 hr,2.99 ± 0.34 % Dose/g
same,"mean % administered dose per gram, Tumor",[1]; 48 hr,1.84 ± 0.09 % Dose/g
same,"mean % administered dose per gram, Adrenal",[2]; 24 hr,0.29 ± 0.01 % Dose/g
same,"mean % administered dose per gram, Adrenal",[2]; 48 hr,0.23 ± 0.01 % Dose/g
same,"mean % administered dose per gram, Blood",[2]; 24 hr,0.23 ± 0.02 % Dose/g
same,"mean % administered dose per gram, Blood",[2]; 48 hr,0.22 ± 0.01 % Dose/g
same,"mean % administered dose per gram, Kidney",[2]; 24 hr,4.45 ± 0.27 % Dose/g
same,"mean % administered dose per gram, Kidney",[2]; 48 hr,3.38 ± 0.43 % Dose/g
same,"mean % administered dose per gram, Liver",[2]; 24 hr,1.27 ± 0.02 % Dose/g
same,"mean % administered dose per gram, Liver",[2]; 48 hr,1.05 ± 0.03 % Dose/g
same,"mean % administered dose per gram, Lung",[2]; 24 hr,0.48 ± 0.03 % Dose/g
same,"mean % administered dose per gram, Lung",[2]; 48 hr,0.33 ± 0.02 % Dose/g
same,"mean % administered dose per gram, Plasma",[2]; 24 hr,0.32 ± 0.03 % Dose/g
same,"mean % administered dose per gram, Plasma",[2]; 48 hr,0.32 ± 0.01 % Dose/g
same,"mean % administered dose per gram, Tumor",[2]; 24 hr,0.37 ± 0.03 % Dose/g
same,"mean % administered dose per gram, Tumor",[2]; 48 hr,0.30 ± 0.01 % Dose/g
same,tumor localization in gamma camera scintigraphy images,[3],tumor was barely visible
